Experimental data as given in a melting point compilation (Tetko et al.; mined from patent text by program, amines drawn as free bases though some values may be those of a salt).

Point of comparison: `CON(C)S(=O)(=O)NC(=O)Nc1nc(C)cc(C)n1`, melting point 152 °C. Against it:
- Nc1ccncc1NC(=S)NCCN1CCC(Nc2nc3ccccc3n2Cc2ccc(F)cc2)C1 (configuration not stated) — higher, 225 °C
- O=S(=O)(c1ccccc1)n1cnc(-c2ccc(F)cc2)c1-c1ccc(F)cc1 — higher, 172 to 175 °C
- OCc1ccc(-c2ccc(OCc3ccccc3)cc2)cc1 — higher, 194 to 195 °C
- COc1cc(NC(=O)N(c2ccc(N(C)C)cc2)C2CCCCCC2)c(OC(=O)[C@H](C)NC(=O)OCc2ccccc2)c(C(C)(C)C)c1 — lower, 126 °C
- CCc1ccc(-c2ccc3c(c2)C=C(C(=O)OC)CCS3(=O)=O)cc1 — higher, 173 to 176 °C
- OCc1ccc(-c2ccc(OC(F)(F)F)c(F)c2)cn1 — lower, 51 to 53 °C
- Nc1nc(-c2ccccc2)nc2cccc(Oc3ccccc3)c12 — higher, 190 to 191 °C
- COC(=O)c1cc(O)cnc1C1=NC(=O)C(C)(C(C)C)N1 (configuration not stated) — higher, 200 to 205 °C
- CC(C)(C)[Si](C)(C)N1C(=O)CC1CC(=O)CC(=O)OCc1ccc([N+](=O)[O-])cc1 (configuration not stated) — lower, 65 to 66.5 °C
- CCCC(CCC)n1nnc2c(Nc3c(Cl)cc(OC)cc3OC)nc(C)cc21 — higher, 157 to 158 °C
- C=C1C(O)C(CO)OC1n1cc(I)c(N)nc1=O (configuration not stated) — higher, 159 to 161 °C
- CCN1C(=O)C(C)(C)C(=O)N(C)c2cc(CN(CCn3ccc4oc(C)cc4c3=O)C(C)c3cccnc3)ccc21 (configuration not stated) — lower, 128 to 132 °C
- COC(=O)CCCCc1ccc(NC(=O)N(CCO)C2CCN(Cc3ccccc3)CC2)cc1 — lower, 118 to 120 °C
- CCCOCC1(c2onc(-c3ccc(O)cc3)c2-c2ccccc2)CC1 — lower, 111 to 112 °C
- Cc1noc(NS(=O)(=O)c2ccc(-c3cc4ccccc4s3)s2)c1Br — higher, 164 °C
- CC(C)C(=O)Nc1cc(C(C)(C)C)on1 — lower, 123 to 124 °C
- COc1ccnc(CCc2nc3cncnc3[nH]2)c1 — not separable, 150 to 152 °C
- COc1ccc(S(=O)(=O)C(C)(Cc2ccccc2Br)C(=O)O)cc1 (configuration not stated) — lower, 93 to 96 °C
- Cc1c(-c2ccccc2)nc2ccccc2c1C(=O)N[C@@H](C)C1CCCCC1 — higher, 177 to 180 °C
- Cc1ccccc1Nc1nc(N(C)c2ccccc2)c2cccc(O)c2n1 — higher, 174 to 175 °C
- CCOC(=O)C1=C(C)N=C(N)N(C(=O)OCC)C1c1cccc([N+](=O)[O-])c1 (configuration not stated) — higher, 166 to 168 °C
- O=c1n(-c2cc(O)c(Cl)cc2Cl)nc2n1CCCC2 — higher, 211 to 212 °C
- Clc1ccc(C2(Cn3cncn3)OCOC2c2ccc(Cl)cc2Cl)cc1 (configuration not stated) — higher, 201 to 203 °C
- CC(C)(C)c1cc(CCC(=O)O)cc(-n2nc3ccc(Sc4ccccc4)cc3n2)c1O — higher, 154 to 156 °C
- Cc1cccc(N2CCN(c3cc[nH]c(=S)c3C#N)CC2C)c1 (configuration not stated) — higher, 250 to 251 °C
- COCCn1nc(-c2sc(C(=O)NC(C)C)nc2-c2ccccc2)ccc1=O — higher, 172 °C
- CC(C)[N+]([O-])=Cc1cccc(N)c1 — lower, 103 to 106 °C
- O=C(O)c1oc(-c2ccccc2Cl)cc(=O)c1Br — higher, 205 to 207 °C
- O=C(O)C1CCNC2CCCCC21 (configuration not stated) — higher, > 300 °C
- CC(C)(C)c1ccc(C(=O)c2ccc3n2Cc2ccccc2N(C(=O)COc2ccc(Cl)cc2)C3)cc1 — higher, 171 °C
- CNc1ncc(-c2cc(Cl)cc(Cl)c2Cl)c(N)n1 — higher, 155 to 157 °C
- Cc1nc2oc3c(c2c(=O)[nH]1)CCCC3 — higher, > 300 °C
- CCCCN(C)C(=O)CS(=O)CCCCCOc1ccc(C2=C(c3ccccc3)CCCc3cc(O)ccc32)cc1 (configuration not stated) — lower, 87 to 89 °C
- COCc1cc(OCc2ccccc2)c2nc(C)n(C)c2c1 — lower, 113 °C
- O=C(Cc1noc2ccccc12)NS(=O)(=O)c1ccc(Cl)cc1 — higher, 209 to 211 °C
- O=C(c1ccccn1)c1cnn2c(-c3cccc(C(F)(F)F)c3)ccnc12 — higher, 166 to 167 °C
- C=C(c1ccc(-n2ccnc2)nc1)C(O)(Cn1cncn1)c1ccc(F)cc1F (configuration not stated) — lower, 145 to 148 °C
- O=C(Nc1ccc(F)cc1)NS(=O)(=O)C1CCCC1 — higher, 155 to 157 °C
- COc1cccc([C@H]2O[C@H](CC(=O)NCCc3oc(C(=O)O)cc3C(=O)O)C(=O)N(CC(C)(C)CO)c3ccc(Cl)cc32)c1OC — higher, 155 to 157 °C
- CN(Cc1ccc(N)cc1)C1CCOCC1 — lower, 93 to 94 °C
- Cc1nc2c(O)cccn2c(=O)c1Cc1ccccc1 — lower, 124 to 125 °C
- Cc1cccc(CNC(=O)CC#N)c1 — lower, 110 to 112 °C
- O=c1c2ccc(O)cc2nc(-c2ccc(O)cc2)n1-c1ccc(OCCCl)cc1 — higher, 285 to 287 °C
- COc1ccc(-c2cc(F)c3c(c2)CC(CN)O3)cc1 (configuration not stated) — higher, > 250 °C
- CC(C)Oc1ccc(Cc2nn(-c3ccccc3Cl)c(=O)o2)cc1 — lower, 54 °C
- COc1ccc2c(c1)OC(C(=O)O)C2 (racemic) — lower, 108 to 110 °C
- Clc1ccc(-n2ccc(OCc3ccccc3Br)n2)cc1 — lower, 45 °C
- COc1ccc(N2CCOCC2)c2sc(NC(=O)N(C)[C@H]3CC[C@@H](OC)CC3)nc12 — higher, 198 to 200 °C
- CC1(C)OC(CS(=O)(=O)c2ccc(Cl)cc2)=CC1=O — lower, 112 to 113 °C
- FC(F)(F)c1cc(-c2ccnc(Nc3ccc4c(c3)OCCO4)c2)cc(C(F)(F)F)c1 — lower, 130 to 132 °C
- CCn1c(Oc2cccc(N)c2)nnc1[C@@H](C)NS(=O)(=O)c1ccc(Cl)c(Cl)c1 — lower, 142 to 145 °C
- O=C1Cc2cccc(Nc3ccc(Cl)cc3)c2N1 — higher, 190 to 192 °C
- c1ccc2c(c1)ncc1nncn12 — higher, 238 to 239 °C
- CC(C)(C)c1ccc(Sc2cccc3c2C(=O)c2c(Sc4ccc(C(C)(C)C)cc4)ccc(Sc4ccc(C(C)(C)C)cc4)c2C3=O)cc1 — higher, 228 to 229 °C
- Cc1ccc(S(=O)(=O)Nc2nc(-c3cccc(-c4ccccc4)c3)cs2)cc1 — higher, 153 to 155 °C
- COc1c(CC(C)(C)C(=O)O)n(Cc2ccc(Cl)cc2)c2ccc(O)cc12 — lower, 137 °C
- N#Cc1c(NC(=O)CO)cccc1N1CCCCC1 — lower, 121 to 124 °C
- Cc1ccc(C(=O)NCc2ccc3c(c2)C(=O)N(C2CCC(=O)NC2=O)C3=O)cc1 (configuration not stated) — higher, 194 to 196 °C
- NCCCCNC(=O)C1(NC(=O)CCCC(=O)O)Cc2ccccc2C1 — lower, 132 °C
- Cc1[nH]c(=S)[nH]c(=O)c1Cc1cccnc1 — higher, 328 to 331 °C
- c1cc(N2CCOCC2)c2c(c1)-n1cnc(-c3nc(C4CC4)no3)c1N1CCN=C21 — higher, 217 to 220 °C
- CC(C)(C)C(=O)c1ccc(C(Br)Br)cc1 — lower, 65 to 68 °C
- O=C(O)c1cc(F)ccc1S — higher, 185 °C
- COC(=O)c1ccc2nc(-c3ccc4c(c3)C(C)(C)CCC4(C)C)[nH]c2c1 — higher, 223 °C
- Nc1[nH]ncc1-c1cccc(N2CCOCC2)c1 — higher, 166 to 168 °C
- Cc1cc(C)nc(OC(C(=O)O)c2ccccc2)n1 (configuration not stated) — lower, 148 °C
- CCc1cc2c(cc1CC)C(=O)C(O)=CC2=O — lower, 105 to 109 °C
- Oc1ccc(C2CCC3(CC2)OCCO3)cc1 — not separable, 152 to 153 °C
- Cc1nc(-n2ccc(-c3ccccc3)cc2=O)sc1C(=O)NCc1ccccc1 — higher, 235 to 237 °C
- CC(C)(c1ccccc1)n1nnc(-c2ccccc2)n1 — lower, 44 to 46 °C
- CCn1nc(C)c(N)c1C(N)=O — lower, 143 to 145 °C
